Assay [1] deals with IL-6. Briefly: IL-6 expression in LPS stimulated PBMCs (Meso Scale). Particulars: Homo sapiens, PBMC, LPS-stimulated PBMCs; for inhibition at 10 µM: compound concentration 10 μM; for inhibition at 1 µM: compound concentration 1 μM. In kind it is cell-based, human. In short, it runs like this:
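Thawed human PBMCs at 200,000 cells/well in RPMI-1640/10% FBS were pretreated with compound or DMSO for 1 h, then stimulated with 100 ng/mL LPS for 18–24 h. Supernatant IL-6 was measured by Meso Scale assay and expressed as % of LPS-induced activity.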

The subject of assay [2] is IL-2. In words: anti-CD3-induced IL-2 secretion in PBMCs. It counts as cell-based. To be noted: Homo sapiens, PBMC, anti-CD3 stimulated PBMCs, 24 h, DMSO = 1.0, read-out: Fold Change IL-2; for fold induction at 10 µM: compound concentration 10 μM; for fold induction at 1 µM: compound concentration 1 μM. How it is done:
FIGS. 4 and 9D are graphs showing anti-CD3-induced IL-2 secretion in PBMCs. 1 ug/mL anti-CD3 (OKT-3) antibody in PBS were coated onto 96-well plates overnight at 4° C. Approximately 550,000 PBMCs were added to each well, followed by addition of DMSO only, Compound 1-8 at 10 μM (FIG. 4) or Compound 9 at 0.1 μM or 1 μM (FIG. 9D), or 10 μM lenalidomide (rev). Induction was measured after 24 h as fold difference from the DMSO stimulated control.
For the IL-2 analysis, 96 well plates were precoated with 1 ug/mL anti-human CD3 antibody (OKT3, eBioscience Inc.). After washing with PBS, compounds were added to the wells (50 μL/well) followed by PBMCs diluted at 3-4 million cells/mL (150 μL/well). Plates were incubated for 24 h and the supernatants collected for Mesoscale IL-2 analysis.
Compound activity was measured as fold difference from the DMSO control. IL-1-beta activity is shown in FIG. 1; IL-6 activity is shown in FIG. 2; TNF-α activity is shown in FIG. 3; and IL-2 activity is shown in FIG. 4.

Assay [3] deals with IL-1β. In words: IL-1β expression in LPS stimulated PBMCs (Meso Scale). It counts as cell-based, human. Particulars: Homo sapiens, PBMC; for inhibition at 10 µM: compound concentration 10 μM; for inhibition at 1 µM: compound concentration 1 μM. In short, it runs like this:
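Human PBMCs (200,000 cells/well in RPMI-1640/10% FBS) were pretreated with compound for 1 h, then stimulated with 100 ng/mL LPS for 18-24 h. IL-1β in supernatant was measured by Meso Scale assay. Activity is expressed as percentage of LPS-induced level, with DMSO-treated wells as negative control.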

In assay [4] the test system is TNF-α. Briefly: TNF-α expression in LPS stimulated PBMCs (Meso Scale). To be noted: Homo sapiens, PBMC; for inhibition at 10 µM: compound concentration 10 μM; for inhibition at 1 µM: compound concentration 1 μM. In kind it is cell-based, human. The procedure, abridged:
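Thawed primary human PBMCs, 200,000 cells/well in RPMI-1640/10% FBS, pretreated with compound 1 h, then stimulated with 100 ng/mL LPS for 18-24 h. Supernatant TNF-α measured by Meso Scale assay; activity expressed as percentage of LPS-induced level, DMSO as negative control.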

Assay [5] deals with Molm-13 cells. Briefly: Molm-13 cell viability (CellTiter-Glo). It counts as cell-based. To be noted: Homo sapiens, MOLM-13, read-out: % Inhibition (MOLM-13 Cell Viability); for cytotoxicity at 10 µM: compound concentration 10 μM; for cytotoxicity at 2.8 µM: compound concentration 2.8 μM. In short, it runs like this:
(§1)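 Molm-13 (RPMI-1640, 10% FBS) and H1048 (DMEM:F12, 5% FBS with supplements) plated at 20,000 cells/well, treated with compound or 0.1% DMSO for 3 days at 37° C., 5% CO2. Viability read by CellTiter-Glo luminescence after 10 min.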

The test system of assay [6] is MDA-MB-231 cells. In words: MDA-MB-231 cell viability (CellTiter-Glo). To be noted: Homo sapiens, 72 h, 3 days, DMSO = 100.00; for viability at 1 µM: 1 μM compound concentration; for viability at 10 µM: 10 μM compound concentration. In kind it is cell-based. The procedure, abridged: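 Cells in DMEM with 10% FBS, seeded at 10,000 per well, exposed to compound (0.1% DMSO control) for 3 days at 37° C, 5% CO2. Viability read by CellTiter-Glo luminescence after 10 min shaking.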

In assay [7] the test system is H1048 cells. In words: H1048 cell viability (CellTiter-Glo). It counts as cell-based. Particulars: Homo sapiens, NCI-H1048, 72 h, H1048, 3 days, DMSO = 100.00; for viability at 1 µM: 1 μM compound concentration; for viability at 10 µM: 10 μM compound concentration. The procedure, abridged:
as §1

Assay [8] concerns the target T1, GSPT1 (Homo sapiens, UniProt P15170).
T1 construct: Whole cell extracts were prepared using RIPA buffer according to manufacturer's protocol (Pierce); endogenous in cells
In words: GSPT1 protein levels by Western Blot analysis. In kind it is cell-based. To be noted: DMSO = 100.00; for remaining activity at 0.1 µM: 100 nM compound concentration; for remaining activity at 1 µM: 1 μM compound concentration. In short, it runs like this:
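Molm-13 AML cells in RPMI 1640 with 10% FBS, about 10^6 cells/mL, treated with compound or DMSO for 6-8 h. RIPA whole-cell lysates resolved by SDS-PAGE, blotted and probed for GSPT1 with β-actin reference; IRDye secondary antibodies quantified by LI-COR Odyssey infrared imaging.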

From US10040804B2, “Compounds targeting proteins, compositions, methods, and uses thereof” (BioTheryX, Inc., priority 2016, dated 2018) come the findings set out here.

T1 sequence (P15170 whole entry): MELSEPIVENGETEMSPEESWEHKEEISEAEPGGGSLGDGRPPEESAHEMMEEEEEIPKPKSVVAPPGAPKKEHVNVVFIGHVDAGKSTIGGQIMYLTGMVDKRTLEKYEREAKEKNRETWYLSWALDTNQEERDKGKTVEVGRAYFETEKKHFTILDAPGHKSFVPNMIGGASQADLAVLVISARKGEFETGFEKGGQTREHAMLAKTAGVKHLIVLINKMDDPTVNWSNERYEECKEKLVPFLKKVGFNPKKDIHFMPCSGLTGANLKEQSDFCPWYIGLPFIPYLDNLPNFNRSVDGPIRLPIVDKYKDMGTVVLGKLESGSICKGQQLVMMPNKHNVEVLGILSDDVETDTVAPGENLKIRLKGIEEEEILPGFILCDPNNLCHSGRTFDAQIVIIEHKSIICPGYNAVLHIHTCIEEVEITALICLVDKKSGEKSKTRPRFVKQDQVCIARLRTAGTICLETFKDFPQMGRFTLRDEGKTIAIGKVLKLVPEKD
T1 sequence (Q96SW2 whole entry, further chain): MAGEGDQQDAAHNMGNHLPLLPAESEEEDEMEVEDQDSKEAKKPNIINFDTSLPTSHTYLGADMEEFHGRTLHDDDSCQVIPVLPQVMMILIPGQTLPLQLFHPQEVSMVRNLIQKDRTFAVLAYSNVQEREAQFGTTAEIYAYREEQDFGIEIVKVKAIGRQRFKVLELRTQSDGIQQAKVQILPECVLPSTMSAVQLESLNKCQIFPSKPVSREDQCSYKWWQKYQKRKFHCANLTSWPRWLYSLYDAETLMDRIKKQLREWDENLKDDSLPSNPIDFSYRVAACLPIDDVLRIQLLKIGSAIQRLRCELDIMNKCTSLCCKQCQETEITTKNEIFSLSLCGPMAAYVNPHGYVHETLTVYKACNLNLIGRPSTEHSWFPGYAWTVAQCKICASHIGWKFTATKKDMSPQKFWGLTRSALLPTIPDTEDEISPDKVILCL
T1 sequence (Q16531 whole entry partner): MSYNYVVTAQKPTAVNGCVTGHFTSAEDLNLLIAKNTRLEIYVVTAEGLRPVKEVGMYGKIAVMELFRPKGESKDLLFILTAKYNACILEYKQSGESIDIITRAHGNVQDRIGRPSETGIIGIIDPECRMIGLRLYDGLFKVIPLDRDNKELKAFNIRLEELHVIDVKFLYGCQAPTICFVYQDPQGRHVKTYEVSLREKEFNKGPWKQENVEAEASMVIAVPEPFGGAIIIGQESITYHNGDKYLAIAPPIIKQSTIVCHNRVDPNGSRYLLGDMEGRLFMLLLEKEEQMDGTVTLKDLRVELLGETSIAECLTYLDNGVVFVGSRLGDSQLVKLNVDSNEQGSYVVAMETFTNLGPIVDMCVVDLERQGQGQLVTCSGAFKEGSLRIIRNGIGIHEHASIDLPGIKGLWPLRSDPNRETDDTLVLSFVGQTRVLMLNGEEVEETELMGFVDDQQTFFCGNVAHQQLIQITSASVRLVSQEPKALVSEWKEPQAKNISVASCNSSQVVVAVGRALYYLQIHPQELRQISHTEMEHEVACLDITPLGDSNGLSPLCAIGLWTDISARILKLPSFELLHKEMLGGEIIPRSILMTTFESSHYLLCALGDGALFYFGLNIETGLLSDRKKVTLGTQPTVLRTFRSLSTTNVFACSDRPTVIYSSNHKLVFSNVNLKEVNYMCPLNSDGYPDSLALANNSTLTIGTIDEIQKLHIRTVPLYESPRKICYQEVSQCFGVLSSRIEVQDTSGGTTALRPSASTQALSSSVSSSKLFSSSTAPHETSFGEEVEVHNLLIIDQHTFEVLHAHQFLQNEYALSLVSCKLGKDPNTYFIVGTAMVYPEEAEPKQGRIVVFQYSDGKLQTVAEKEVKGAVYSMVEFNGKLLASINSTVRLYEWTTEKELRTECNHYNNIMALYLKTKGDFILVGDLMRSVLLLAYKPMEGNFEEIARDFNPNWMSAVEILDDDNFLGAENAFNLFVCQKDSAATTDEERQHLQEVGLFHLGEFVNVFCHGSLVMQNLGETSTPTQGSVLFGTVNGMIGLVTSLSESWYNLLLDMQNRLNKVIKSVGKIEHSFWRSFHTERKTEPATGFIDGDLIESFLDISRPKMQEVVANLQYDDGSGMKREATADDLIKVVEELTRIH

For the molecule `Cc1scc2c1CN([C@H]1CCCCNC1=O)C2=O` [Compound 28, (S)-1-Methyl-5-(2-oxoazepan-3-yl)-5,6-dihydro-4H-thieno[3,4-c]pyrrol-4-one], the inhibition at 10 µM came out at 9% in assay [1], 0% in assay [3] and 0% in assay [4]. The fold induction at 10 µM in assay [2] amounted to 0.9. Further, the cytotoxicity at 10 µM in assay [5] was 0%.

For the molecule `Cc1ccc(NC(=O)NCc2scc3c2CN([C@H]2CCCC(=O)NC2=O)C3=O)cc1Cl` [Compound 30, (S)-1-(3-Chloro-4-methylphenyl)-3-((5-(2,7-dioxoazepan-3-yl)-4-oxo-5,6-dihydro-4H-thieno[3,4-c]pyrrol-1-yl)methyl)urea], the inhibition at 1 µM in assay [1] was determined as 98%; in assay [3] it was 81%; in assay [4], 84%. The viability at 1 µM in assay [6] was 52.9%; in assay [7] it was 8.55%. The viability at 10 µM in assay [6] stood at 26.3%; in assay [7], 8.34%. Moreover, the fold induction at 1 µM in assay [2] is 0.4. Moreover, the remaining activity at 0.1 µM in assay [8] came out at 42.7%. The remaining activity at 1 µM in assay [8] came to 5.28%. Also, the cytotoxicity at 1 µM in assay [5] (compound concentration 1 μM) amounted to 50%.

With `Cc1ccc(CC(=O)NCc2scc3c2CN([C@H]2CCCC(=O)NC2=O)C3=O)cc1Cl` [Compound 31, (S)-2-(3-Chloro-4-methylphenyl)-N-((5-(2,7-dioxoazepan-3-yl)-4-oxo-5,6-dihydro-4H-thieno[3,4-c]pyrrol-1-yl)methyl)acetamide], the inhibition at 1 µM in assay [1] came to 40%; in assay [3], 76%; in assay [4], 80%. The figures for the viability at 1 µM in assay [6] and in assay [7] were 103% and 84.3%, respectively. The viability at 10 µM in assay [6] amounted to 107%; in assay [7], 26.8%. Besides, the fold induction at 1 µM in assay [2] turned out to be 1.7. Besides, the remaining activity at 0.1 µM in assay [8] worked out at 131%. In addition, in assay [8], the remaining activity at 1 µM worked out at 108%. Besides, the cytotoxicity at 10 µM in assay [5] came to 12%.

Turning to `O=C1CCC[C@H](N2Cc3c(csc3CNC(=O)Nc3ccc(C(F)(F)F)c(Cl)c3)C2=O)C(=O)N1` [Compound 32, (S)-1-(3-Chloro-4-(trifluoromethyl)phenyl)-3-((5-(2,7-dioxoazepan-3-yl)-4-oxo-5,6-dihydro-4H-thieno[3,4-c]pyrrol-1-yl)methyl)urea], the inhibition at 0.1 µM in assay [1] (compound concentration 0.1 μM) was 65%; in assay [3] (compound concentration 0.1 μM) it was 67%; in assay [4] (compound concentration 0.1 μM) it was 62%. Also, the viability at 1 µM is 91.2% in assay [6] and 10.6% in assay [7]. Also, the values for the viability at 10 µM in assay [6] and in assay [7] were 44.3% and 10.8%, respectively. Moreover, the fold induction at 0.1 µM in assay [2] (compound concentration 0.1 μM) stood at 0.8. Also, the remaining activity at 0.1 µM in assay [8] stood at 61.7%. In assay [8], the remaining activity at 1 µM came to 29.3%. Moreover, the cytotoxicity at 0.5 µM in assay [5] (compound concentration 0.5 μM) turned out to be 25%.

On to `Cc1cnc(Nc2ccc(OCCCNCC(=O)NCc3scc4c3CN([C@H]3CCCC(=O)NC3=O)C4=O)cc2)nc1Nc1cccc(S(=O)(=O)NC(C)(C)C)c1` [Compound 58, (S)-2-((3-(4-((4-((3-(N-(tert-Butyl)sulfamoyl)phenyl)amino)-5-methylpyrimidin-2-yl)amino)phenoxy)propyl)amino)-N-((5-(2,7-dioxoazepan-3-yl)-4-oxo-5,6-dihydro-4H-thieno[3,4-c]pyrrol-1-yl)methyl)acetamide], for which the inhibition at 10 µM in assay [1] is 53%; in assay [3], 82%; in assay [4] it was 92%. Further, the fold induction at 10 µM in assay [2] stood at 1.9. Moreover, the cytotoxicity at 6 µM in assay [5] (compound concentration 6 μM) came out at 50%.

Take `Cc1cnc(Nc2ccc(OCCCNCC(=O)NCc3scc4c3CN(C3CCC(=O)NC3=O)C4=O)cc2)nc1Nc1cccc(S(=O)(=O)NC(C)(C)C)c1` (stereo not shown) [Compound 59, 2-((3-(4-((4-((3-(N-(tert-Butyl)sulfamoyl)phenyl)amino)-5-methylpyrimidin-2-yl)amino)phenoxy)propyl)amino)-N-((5-(2,6-dioxopiperidin-3-yl)-4-oxo-5,6-dihydro-4H-thieno[3,4-c]pyrrol-1-yl)methyl)acetamide]: the inhibition at 10 µM in assay [1] is 10%; in assay [3], 45%; in assay [4], 81%. Moreover, the fold induction at 10 µM in assay [2] was found to be 1.8. Further, the cytotoxicity at 2.8 µM in assay [5] turned out to be 50%.

For the molecule `Cc1sc2c(c1C)C(c1ccc(Cl)cc1)=N[C@@H](CC(=O)NCCCCNCC(=O)NCc1scc3c1CN(C1CCC(=O)NC1=O)C3=O)c1nnc(C)n1-2` (stereo partly drawn) [Compound 60, 2-((S)-4-(4-Chlorophenyl)-2,3,9-trimethyl-6H-thieno[3,2-f][1,2,4]triazolo[4,3-a][1,4]diazepin-6-yl)-N-(4-((2-(((5-(2,6-dioxopiperidin-3-yl)-4-oxo-5,6-dihydro-4H-thieno[3,4-c]pyrrol-1-yl)methyl)amino)-2-oxoethyl)amino)butyl)acetamide], the inhibition at 1 µM in assay [1] was determined as 95%; in assay [3] it was 91%; in assay [4], 93%. For the same molecule, in assay [2], the fold induction at 1 µM worked out at 0.2. Moreover, in assay [5] (compound concentration 0.2 μM), the cytotoxicity at 0.2 µM amounted to 50%.

Take `Cc1cnc(Nc2ccc(OCCCNC(=O)NCc3scc4c3CN([C@H]3CCCC(=O)NC3=O)C4=O)cc2)nc1Nc1cccc(S(=O)(=O)NC(C)(C)C)c1` [Compound 61, (S)—N-(tert-Butyl)-3-((2-((4-(3-(3-((5-(2,7-dioxoazepan-3-yl)-4-oxo-5,6-dihydro-4H-thieno[3,4-c]pyrrol-1-yl)methyl)ureido)propoxy)phenyl)amino)-5-methylpyrimidin-4-yl)amino)benzenesulfonamide]: the inhibition at 10 µM turned out to be 11% in assay [1], 53% in assay [3] and 66% in assay [4]. Besides, the fold induction at 10 µM in assay [2] stood at 0.8. Also, the cytotoxicity at 2.8 µM in assay [5] amounted to 50%.
